In test [1] the target is T1, UCHL1 (Homo sapiens, UniProt P09936).
T1 sequence (P09936 1-223): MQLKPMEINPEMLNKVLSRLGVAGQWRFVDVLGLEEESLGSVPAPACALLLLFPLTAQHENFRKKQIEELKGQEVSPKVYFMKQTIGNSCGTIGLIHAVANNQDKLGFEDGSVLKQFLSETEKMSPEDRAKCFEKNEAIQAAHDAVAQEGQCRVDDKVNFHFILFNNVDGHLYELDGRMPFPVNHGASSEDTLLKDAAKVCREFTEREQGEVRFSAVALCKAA
Nature of the test: Cross-screening against unrelated DUB UCHL1. Format: biochemical. The conditions noted are these: Table S1, ESI.

Test [2] concerns the target T2, USP30 (Homo sapiens, UniProt Q70CQ3).
T2 construct: We next determined cellular engagement of endogenous USP30 with IMP-2587 or IMP-2586; endogenous in cells; host or cells: HEK293T
T2 sequence (Q70CQ3 1-517): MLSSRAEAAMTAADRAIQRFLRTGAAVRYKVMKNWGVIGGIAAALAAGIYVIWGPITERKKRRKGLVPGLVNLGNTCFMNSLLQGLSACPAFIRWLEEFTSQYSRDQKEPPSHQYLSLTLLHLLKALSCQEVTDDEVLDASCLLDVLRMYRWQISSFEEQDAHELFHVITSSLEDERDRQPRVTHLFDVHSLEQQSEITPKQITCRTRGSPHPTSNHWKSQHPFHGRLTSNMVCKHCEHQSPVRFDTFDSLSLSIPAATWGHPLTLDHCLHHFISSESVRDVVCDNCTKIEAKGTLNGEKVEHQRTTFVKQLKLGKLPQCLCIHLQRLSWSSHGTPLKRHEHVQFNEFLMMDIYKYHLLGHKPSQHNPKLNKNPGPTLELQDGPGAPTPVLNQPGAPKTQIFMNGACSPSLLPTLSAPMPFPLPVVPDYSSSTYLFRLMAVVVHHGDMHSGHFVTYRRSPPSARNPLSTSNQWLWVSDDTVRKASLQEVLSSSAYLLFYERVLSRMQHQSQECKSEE
The test is described as follows: Biotin pulldown (Neutravidin enrichment) and immunoblotting for USP30. The class given is cell-based. The conditions noted are these: HEK293T, 1 h; for extent of USP30 engagement and enrichment: 100 nM probe, pulldown; for probe concentration at which USP30 was enriched (pulldown) / probe concentration of maximal USP30 enrichment (pulldown): biotin pulldown and immunoblotting. As for the experimental part: We next determined cellular engagement of endogenous USP30 with IMP-2587 or IMP-2586. […] In-cell concentration-dependent competition by IMP-2587 and IMP-2586 for USP30 were confirmed below 100 nM probe (Fig. 2b and c), whilst engagement of an exemplar unrelated DUB, UCHL1, occurred only at a much higher concentration (30 000 nM). We hypothesise that incomplete modification of USP30 by HA-Ub-VME is likely due to limited retention of USP30 activity in cell lysates, which have likely had the USP30 transmembrane domain compromised, highlighting the potential utility of a small molecule USP30 ABP applicable directly in intact cells. Direct USP30 target engagement by IMP-2587 and IMP-2586 was confirmed in HEK293T cells following 1 h probe treatment followed by cell lysis and CuAAC bio-orthogonal ligation to capture reagent azido-TAMRA-biotin (AzTB) for IMP-2587 or alkyne-TAMRA-biotin for IMP-2586 (Fig. 3a).[27] […] This unspecific background labelling is presumably due to the previously reported higher off-target CuAAC reactivity of an alkyne-bearing capture reagent, applied here due to incorporation of an azide tag in IMP-2586.[28] Moreover, the labelling of USP30 was further confirmed by biotin pulldown and immunoblotting. […]
d) Live cell probe incubation, lysate click chemistry and precipitation 6-well HEK293T cells were incubated with media containing compounds ABP 2 and ABP 4 at indicated concentrations for 1 h at 37 °C. The cells were washed with PBS and lysed with lysis buffer (50 μL (1% (v/v) Triton X-100, 0.1% (w/v) sodium dodecyl sulfate (SDS), EDTA-free complete protease inhibitor cocktail (1×, Roche) in PBS on ice for 10 min. The lysates were scraped and transferred to corresponding Lo-Bind Eppendorfs. Each lysate was sonicated for 1 minute, and the samples centrifuges at 5,000 x g at 4 °C for 5 minutes to pellet insoluble cellular debris. The supernatant was collected, and protein concentration was determined using the DC Protein Assay (Bio-Rad) as per manufacturer’s instructions, and normalised to lowest concentrated sample (e.g. 1 mg/mL, using lysis buffer). The following “click mixture” was prepared separately, preparing 6 μL for every 100 μL of […]
Capture reagent (AzRB/AzT for ABP 2, YnT/YnB for ABP 4 10 mM in DMSO, 1 vol; final concentration […]
CuSO4 (50 mM in water, 2 vol; final concentration in reaction 1 mM)
TCEP (50 mM in water, 2 vol; final concentration in reaction 1 mM)
TBTA (10 mM in DMSO, 1 vol; final concentration in reaction 100 µM)
The click mixture was vortexed and incubated at room temperature for 2 min before 6 μL of the mixture was added to every 100 μL of lysate. The reaction mixtures were shaken at room temperature for 1 h before being quenched with EDTA (500 mM in H2O) to a final concentration of 10 mM.
Proteins were precipitated by adding H2O (1 vol), MeOH (2 vol) and CHCl3 (0.5 vol), vortexing briefly then centrifuging at 17,000 × g for 5 min. The top H2O/MeOH layer was discarded and the middle layer of protein pellet and lower CHCl3 layer retained. The suspension was washed with MeOH (300 μL), and sonicated to break up the pellet. The proteins were pelleted by centrifugation at 10,000–17000 × g for 5–10 min or until a compact pellet was formed. The protein pellet was washed once more with MeOH (1 mL). The pellet was resuspended by sonicating and completely dissolving in 1% (w/v) SDS in PBS (to 5 mg/mL protein) before being made up to 1 mg/mL protein with PBS.
The lysate samples (10-20 μg) were mixed with 4× Laemmli sample loading buffer (250 mM Tris -HCl pH 6.8, 30% (v/v) glycerol, 10% (w/v) SDS, 0.05% (w/v) bromophenol blue) supplemented with 20% v/v β-mercaptoethanol (BME) and boiled for 10 min at 95 °C. The resulting protein samples were separated according to the protocol in section 3.2.c. Gel were imaged on a Typhoon imager (GE Healthcare; λEx 532 nm, λEm 575 nm for TAMRA. For protein loading quantification, gels were stained with Coomassie blue staining solution overnight, rinsed with water and imaged on an ImageQuant™ […]

Structures are written as SMILES.

Take `N#CN1CC[C@@H](NC(=O)c2cc(-c3ccccc3Oc3ccc(N=[N+]=[N-])cc3)n[nH]2)C1` [IMP-2586]: in test [1], the “activity against UCHL1 (cross-screening)” value is “no activity”. Besides, in test [2], the “extent of USP30 engagement and enrichment” value is “almost complete engagement and enrichment”; the “probe concentration at which USP30 was enriched (pulldown)” value is 10 nM; the “probe concentration of maximal USP30 enrichment (pulldown)” value is 100 nM.
Consider `C#Cc1cccc(-c2cc(NC(=O)CC3CCN(C#N)C3)on2)c1` (centres unmarked) [IMP-2587], for which the “activity against UCHL1 (cross-screening)” value in test [1] is “no activity”. Also, in test [2], the “extent of USP30 engagement and enrichment” value was “almost complete engagement and enrichment”; the “probe concentration at which USP30 was enriched (pulldown)” value is given as 10 nM; the “probe concentration of maximal USP30 enrichment (pulldown)” value came out at 100 nM.

These data come from PMC11078216, “Discovery of potent and selective activity-based probes (ABPs) for the deubiquitinating enzyme USP30” (RSC Chemical Biology, 2024).
